Test results published in patent US20260085087A1, “CHEMICAL COMPOUND COMPRISING A TRIAZINE GROUP AND METHOD FOR PRODUCING SAME” (priority 2020, published 2026).
[TzD] = triazinylamidophosphate internucleotide linkage carrying two dodecyl amine moieties; {FAM} = fluorescein (FAM) label

How the values were obtained:
HEK293T cells [1] = test: Comparison of cell penetration efficiency of oligonucleotides with lipophilic moieties in various modification backbones; format: cell-based, human; details: 4 hours after transfection
Description: (§1) Cultured HEK293T and T98G human cells were plated onto the wells of a 24-well microplate in a concentration 20×10^4 cells/well (HEK293T) or 12×10^4 cells/well (T98G) in 500 μl/well IMDM media comprising 10% FBS and 1% solution of antibiotic and antimycotic agents (10 mg/ml streptomycin, 10,000 U/ml penicillin, and 25 mg/ml amphotericin (IMP Biomedicals, Germany) (hereinafter, the complete medium), and incubated for 18 hrs to provide cell attachment. Furthermore, cell medium was replaced with 200 μl/well IMDM medium in the absence of serum and antibiotic agents. Oligonucleotides (OSNF, OSN4F) were dissolved in Opti-MEM and added to the cells until the final concentration of 1 or 5 μM (50 μl/well) was achieved. […] The cells were analyzed on a flow cytometer NovoCyte 3000 (ACEA Biosciences, USA). […] Oligonucleotide penetration efficiency was characterized by two indicators: % of fluorescent cells in a population and average intensity of cell fluorescence in a sample, which were measured using flow cytometry in 4 hours after transfection. Histograms A and C show % of fluorescent cells, histograms B and D show average fluorescence intensity. RFU means relative fluorescence units, LF means Lipofectamine 2000. […]
Cell fluorescence percent (left) and average fluorescence intensity (right) were measured using flow cytometry in 4 hours after transfection. […]

HEK293T cells [2] = test: HEK293T cell transfection efficiency by flow cytofluorometry; format: cell-based, human; details: 4 hours
Description: (§2) To study cell penetration efficiency, oligonucleotide 5′-[FAM]-CTGACTATGAAGTAT*T-3′ (OSN4F) was used, wherein * is a position of thiazinylamidophosphate unit carrying two dodecyl moieties, and control unmodified oligonucleotide 5′-[FAM]-CTGACTATGAAGTATT-3′ (OSNF).
as §1, with “Histograms A and C show % of fluorescent cells, histograms B and D show average fluorescence intensity.” left out

HEK293T cells [3] = test: Confocal microscopy of penetration into human cells; format: cell-based; details: 1 μM, 4 hours, no serum
Description: In this study, oligonucleotide 5′-[FAM]-CTGACTATGAAGTAT*T-3′ (OSN4F) was used, wherein * is a position of triazinylamidophosphate unit having two dodecyl moieties.
Cultured human cells HEK293T were plated on slides placed to the wells of the 24-well microplate, in a concentration of 6×10^4 cells/well in a complete IMDM medium and incubated at 37° C. in 5% CO2 for 12 to 18 hours to provide cell attachment. Then, the medium was replaced to IMDM, in the absence of serum and antibiotic agent, which comprises OSN4F at a concentration of 1 μM. The cells were incubated in the presence of oligonucleotide at 37° C. in 5% CO2 for 4 hours. […]
Intracellular location of oligonucleotide OSN4F was studied using confocal microscope LSM710 (Zeiss, Germany) with the plan-apochromat 63×/1.40 Oil DIC M27 (Zeiss, Germany) lens and two channels, blue and green. Fluorescence in a blue channel at exciting laser wavelength of 405 nm corresponded to NucBlue (cell nuclei staining); green channel at exciting laser wavelength of 488 nm corresponded to fluorescence of oligonucleotide OSN4F labelled with a 6-carboxyfluorescein moiety.

T98G cells = test: T98G cell transfection efficiency by flow cytofluorometry; format: cell-based, human; details: 4 hours
Description: as §2
as §1, with “Histograms A and C show % of fluorescent cells, histograms B and D show average fluorescence intensity.” left out

Substance: 5′-[FAM]-CTGACTATGAAGTAT*T-3′ (CTGACTATGAAGTATT; DNA, linkages o14 [TzD]1 (s phosphorothioate, o phosphodiester), 5' {FAM}, methylation of C not given here) [OSN4F, * is a triazinylamidophosphate unit carrying two dodecyl moieties]
- penetration rate (cell fluorescence percent) relative to PGO, PN, ODF (HEK293T cells [1]; 1 μM): significantly higher than in other oligonucleotides used
- average fluorescence intensity relative to other oligonucleotides (HEK293T cells [1]): penetrates cells in larger amounts than other oligonucleotides
- penetration efficiency (number of transfected cells and fluorescence intensity) (HEK293T cells [2]; 1 or 5 μM, no additional transfection agent): efficiently penetrates the HEK293T cells
- penetration efficiency relative to control OSNF with Lipofectamine 2000 (HEK293T cells [2]; OSN4F without transfection agent): comparable
- intracellular location (HEK293T cells [3]): positioning in the cytoplasm and various cell compartments
- penetration efficiency relative to control oligonucleotide (T98G cells; 1 or 5 μM, no additional transfectants): penetrates the T98G cells more efficiently than the control oligonucleotide
- penetration efficiency in T98G relative to HEK293T cells (T98G cells): reduced relative to the HEK293K kidney cells
